Experiments:
A. baumannii PBP1a = molecular target: T1, A. baumannii PBP1a (Acinetobacter baumannii, UniProt A0ABX6CK30); assay: Bocillin-FL competition binding via gel filtration, A. baumannii PBP1a; conditions: competition binding assay using Bocillin-FL via gel filtration; read-out: A. baumannii PBP1a Potency
T1 sequence (A0ABX6CK30 1-851): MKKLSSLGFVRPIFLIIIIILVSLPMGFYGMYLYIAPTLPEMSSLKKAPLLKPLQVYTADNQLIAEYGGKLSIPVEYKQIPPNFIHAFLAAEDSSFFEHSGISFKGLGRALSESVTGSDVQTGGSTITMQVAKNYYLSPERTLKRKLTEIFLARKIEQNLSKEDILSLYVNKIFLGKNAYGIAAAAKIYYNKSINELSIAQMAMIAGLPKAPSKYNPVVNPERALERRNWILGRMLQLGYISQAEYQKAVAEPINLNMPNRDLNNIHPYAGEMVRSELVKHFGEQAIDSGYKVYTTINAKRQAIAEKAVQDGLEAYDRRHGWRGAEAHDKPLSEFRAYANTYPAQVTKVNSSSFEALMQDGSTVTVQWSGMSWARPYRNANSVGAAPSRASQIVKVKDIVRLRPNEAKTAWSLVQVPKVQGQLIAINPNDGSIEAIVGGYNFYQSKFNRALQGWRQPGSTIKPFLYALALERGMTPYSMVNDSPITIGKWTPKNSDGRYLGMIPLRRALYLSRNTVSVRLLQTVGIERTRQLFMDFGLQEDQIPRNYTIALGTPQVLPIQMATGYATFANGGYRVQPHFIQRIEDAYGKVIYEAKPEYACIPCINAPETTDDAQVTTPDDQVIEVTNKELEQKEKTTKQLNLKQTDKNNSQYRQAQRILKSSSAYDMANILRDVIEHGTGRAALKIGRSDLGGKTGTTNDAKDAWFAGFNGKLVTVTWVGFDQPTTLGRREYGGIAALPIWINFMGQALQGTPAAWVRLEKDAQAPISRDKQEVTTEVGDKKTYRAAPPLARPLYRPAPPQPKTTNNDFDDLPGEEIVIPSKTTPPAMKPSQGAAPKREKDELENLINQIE
Method in brief: (§1)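 Enzyme pre-incubated with increasing inhibitor concentrations, then Bocillin-FL added for 15 min further incubation. Bocillin-FL-bound PBP separated by gel filtration and fluorescence read. EC50 from fitting fraction PBP bound vs inhibitor concentration to a Hill-type equation (ymin, ymax, n).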

A. baumannii CDC-0036 = assay: microbe, parasite or virus in culture; format: cell-based; conditions: Acinetobacter baumannii, CDC0036, read-out: MIC, A. baumannii CDC-0036
[1] = test system: B. humptydooensis ATCC BAA-2767; assay: microbe, parasite or virus in culture; format: cell-based; conditions: Burkholderia humptydooensis, ATCCBAA2767, read-out: Minimum inhibitory concentration (MIC), B. humptydooensis ATCC BAA-2767
A. baumannii PBP2 = A. baumannii PBP2 (Acinetobacter baumannii, UniProt D0C8Z9); assay: Bocillin-FL competition binding via gel filtration, A. baumannii PBP2
Method in brief: as §1

[2] = molecular target: T2, PBP1a from Acinetobacter baumannii (ATCC 19606) (Acinetobacter baumannii, UniProt A0ABX6CK30); assay: Bocillin-FL fluorescence polarization competition binding, A. baumannii PBP1a; conditions: fluorescence polarization competition binding assay using Bocillin-FL; read-out: A. baumannii PBP1a Potency
T2 sequence (A0ABX6CK30 1-851): T1 sequence (A0ABX6CK30 1-851)
Source text: To determine the ability of boronic acid-based test PBP inhibitors to bind Penicillin Binding Proteins (PBPs), Bocillin-FL (fluorescently-labeled penicillin V; ThermoFisher Scientific) was used in a fluorescence polarization (FP) competition binding assay to assess inhibitor binding to PBP3 from Escherichia coli (K-12), PBP3 from Pseudomonas aeruginosa (PAO1), PBP1a and PBP3 from Acinetobacter baumannii (ATCC 19606), and PBP2 from Neisseria gonorrhoeae (FA19). PBPs were cloned and purified as described previously (E. coli PBP3, King, D. T, et al., ACS Infectious Diseases 2015, 1, 175-184; P. aeruginosa PBP3, Han et. al., PNAS 2010, 107 (51), 22002-22007; A. baumannii PBPs, Penwell et. al., Antimicrob. Agents Chemother. 2015, 59 (3), 1680-1689; N. gonorrhoeae PBP2, Singh et. al., J. Biol. Chem. 2019, 294 (38), 14020-14032). To establish assay conditions for competition binding, enzyme titration/saturation binding experiments were initially performed. Bocillin-FL was prepared at 0.2 μM in a buffer comprised of 50 mM Hepes (pH 8.0), 300 mM NaCl and 10% (v/v) glycerol for reactions with E. coli, P. aeruginosa and N. gonorrhoeae PBPs, and 25 mM Tris (pH 8.0), 200 mM NaCl, 10% (v/v) glycerol and 0.005% (v/v) Tween 20 for reactions with A. baumannii PBPs. Saturation binding was performed by mixing 40 μl of PBP solutions ranging in concentrations from 0-24 μM with 40 μl of the 0.2 μM Bocillin-FL solution, in individual wells of a black 384-well microplate. FP was measured immediately upon mixing (Excitation, 490 nm; Emission, 520 nm; g-factor, 0.96), using a Cytation3 (BioTek) microplate reader and measured continuously for up to 120 minutes. The FP response stabilized after 15 minutes for P. aeruginosa and A. baumannii PBP3, 30 minutes for E. coli PBP3 and A. baumannii PBP1a, and less than 1 minute for N. gonorrhoeae PBP2. […] The competition binding assay (80 μl final volume) was validated using beta-lactams and PBPs at final concentrations of: 1.5 μM for E. coli PBP3; 0.75 μM for P. aeruginosa PBP3; 1 μM for A. baumannii PBP1a; 0.2 μM for A. baumannii PBP3; and 0.25 μM for N. gonorrhoeae PBP2. Bocillin-FL was at 0.1 μM (0.05 μM with A. baumannii PBP1a) and beta-lactam concentrations ranged from 0-1,000 μM. E. coli PBP3 was incubated with increasing concentrations of ampicillin in a black 384-well microplate (Corning) for 30 minutes. P. aeruginosa PBP3 was incubated for 15 minutes with aztreonam, whereas A. baumannii PBP1a and PBP3 were incubated for 15 minutes with meropenem, and then Bocillin-FL was added followed immediately by the FP measurement for up to 60 minutes. […] The beta-lactam potency was reported as the concentration of beta-lactam required to reduce the amount of PBP bound-Bocillin-FL by 50% (EC50). […] The EC50 of aztreonam was determined to be <0.5 μM for P. aeruginosa PBP3. […] Binding assays for boronic acid PBP inhibitors were performed in an identical fashion for the respective PBPs.

A. baumannii PBP2, sequence (D0C8Z9 whole entry): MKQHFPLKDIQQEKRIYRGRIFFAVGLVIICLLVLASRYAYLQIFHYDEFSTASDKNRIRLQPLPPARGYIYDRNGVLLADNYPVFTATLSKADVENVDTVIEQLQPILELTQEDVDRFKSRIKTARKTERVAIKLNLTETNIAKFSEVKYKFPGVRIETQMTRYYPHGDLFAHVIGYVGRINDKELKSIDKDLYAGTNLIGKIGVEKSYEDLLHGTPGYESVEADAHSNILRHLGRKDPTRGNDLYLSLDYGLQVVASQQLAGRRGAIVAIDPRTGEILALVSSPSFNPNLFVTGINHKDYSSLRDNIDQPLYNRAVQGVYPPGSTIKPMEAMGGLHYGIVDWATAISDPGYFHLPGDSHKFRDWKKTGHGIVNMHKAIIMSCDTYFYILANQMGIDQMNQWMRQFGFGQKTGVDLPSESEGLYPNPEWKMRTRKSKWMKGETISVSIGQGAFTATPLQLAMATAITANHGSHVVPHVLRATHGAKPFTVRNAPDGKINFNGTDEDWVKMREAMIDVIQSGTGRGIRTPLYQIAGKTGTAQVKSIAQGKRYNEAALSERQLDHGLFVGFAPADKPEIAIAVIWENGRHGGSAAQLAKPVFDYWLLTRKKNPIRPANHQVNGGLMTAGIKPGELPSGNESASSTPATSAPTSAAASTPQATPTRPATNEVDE

O=C(O)c1c(F)ccc2c1OB(O)[C@@H](NC(=O)C(NC(=O)N1CCN(Cc3cc(F)c(O)c(O)c3Cl)C(=O)C1=O)c1ccc(P(=O)(O)O)cc1)C2 (stereo partly drawn) [Example 45, (3R)-3-(2-(4-(2-chloro-5-fluoro-3,4-dihydroxybenzyl)-2,3-dioxopiperazine-1-carboxamido)-2-(4-phosphonophenyl)acetamido)-7-fluoro-2-hydroxy-3,4-dihydro-2H-benzo[e][1,2]oxaborinine-8-carboxylic acid]
EC50 (A. baumannii PBP1a): 10 to 50 µM | MIC (A. baumannii CDC-0036): < 1 µg/mL | MIC [1]: < 1 µg/mL | EC50 (A. baumannii PBP2): < 10 µM | IC50 [2]: > 250 µM
